Laboratory results from patent US20230025843A1, “MAMMAL KINASE INHIBITORS TO PROMOTE IN VITRO EMBRYOGENESIS INDUCTION OF PLANTS” (CONSEJO SUPERIOR DE INVESTIGACIONES CIENTIFICAS (CSIC), priority 2019, published 2023).
Values joined by “and” are separate entries in the source; they are usually repeats but may differ in a detail not shown here. Equal entries are not always repeated.

Columns and labels:
Format in all cases: cell-based
[1] = tested on: B. napus microspore cultures; test: Microspore embryogenesis induction in isolated microspore culture (proembryos at 4 days), liquid medium; settings: for concentrations that provided an improvement of embryogenesis initiation yield: B. napus microspore cultures, proembryos at 4 days vs control, 3-4 concentrations tested; for increase in the percentage of proembryos: 4 days, vs control cultures normalized to 100%
Procedure: B. napus L. (rapeseed) cv. ‘Topas’ line DH407 plants were used as donor plants. Rapeseed seeds were germinated and grew under controlled conditions (relative humidity 60%, 15° C. under long-day photoperiod 16 h light and 8 h dark at 10° C.) in a growth chamber in pots containing a mixture of organic substrate and vermiculite (2/1, v/v).
Flower buds containing vacuolated microspores, the most responsive stage for microspore induction, were isolated for microspore culture as previously described (Prem et al., 2012 BMC Plant Biology 12, 127). The selected buds were surface-sterilized in 5.0% (v/v) commercial bleach (5% active chlorine) for 20 min and then rinsed 6-7 times with sterile distilled water. Ten to 15 buds were crushed using a cold mortar and pestle in 5 ml of cold NLN-13 medium containing 13% sucrose (w/v). The suspension was filtered through 48 μm nylon mesh and the filtrate collected in 15-ml falcon centrifuge tubes. The crushed buds were rinsed with 5 ml NLN-13 to make up the volume to 10 ml and the filtrate was then centrifuged at 1100 rpm for 5 min at 4° C. The pellet was re-suspended in 10 ml of cold NLN-13 and centrifuged as mentioned above. This process was repeated three times for washing of the microspores. The final pellet was suspended in the NLN-13, and the cell density was adjusted to 10,000 cells per ml. The cell suspension was then poured into 90-mm Petri dishes (10 ml per Petri dish) and cultured in darkness. For embryogenesis induction, microspore cultures were subjected to an in vitro stress treatment of 32° C. for 15 days. In response to the inductive treatment, responsive microspores divide and produce multicellular structures or proembryos, still confined within the microspore wall (exine). Such structures are considered to be the first sign of embryogenesis initiation; they can be found after 4-6 days in culture. When globular/heart shaped embryos were observed (around 20 days), cultures were shifted to 25° C. on a gyratory shaker at 60 rpm until complete development and maturation of the embryos was observed (FIG. 1), normally around 30 days in culture.
The compounds were added to the microspore liquid culture media by using stock solutions of 10 mM in DMSO. Appropriate volumes of stock solutions of the drugs were added to the culture media to get the selected working concentrations of the inhibitors, keeping DMSO concentration below 0.2%. • In B. napus microspore cultures: 4-benzyl-2-methyl-1,2,4-thiadozilidine-3,5-dione (TDZD8), 5-(2-Morpholinethylimino)-2,3-diphenyl-2,5-dihydro-1,2,4-thiadiazole (VP3.15), 3-acetyl-4-(1-methyl-1H-indol-3-yl)-1H-pirrol-2,5-dione (VP3.36), 4-hydroxy-1-ethyl-N′-palmitoyl-2-oxo-1,2-dihydroquinoline-3-carbohydrazide (VP0.7), N-(6-methylbenzothiazole-2-yl)-4-morpholinobenzamide (JZ1.3), N-(6-fluorobenzothiazole-2-yl)-4-morpholinobenzamide, (JZ1.6) and N-(6-bromobenzothiazole-2-yl)-4-morpholinobenzamide (JZ1.24). and (E,Z)-3-(morpholinoimino)indolin-2-one (IGS4.75) were tested at 3-4 different concentrations, ranging from 0.5 to 5 μM. • In H. vulgare microspore cultures: 4-benzyl-2-methyl-1,2,4-thiadozilidine-3,5-dione (TDZD8) and N-(6-bromobenzothiazole-2-yl)-4-morpholinobenzamide (JZ1.24) inhibitors at the selected concentrations (2.5 μM and […], respectively) were tested.
The compounds were added from culture initiation and their effect on embryogenesis efficiency was assessed. Several plates of the same cultures were kept without the inhibitors, as controls.
Embryogenesis induction was quantified in control and treated-cultures by the number of proembryos formed (considered the first sign of embryogenesis initiation), as previously described, and by the number of embryos produced after 40 days. Proembryos were easily identified under inverted microscope in 4 day-culture plates as rounded multicellular structures with higher size and density than microspores, still surrounded by the exine (special microspore wall). […]

[2] = tested on: proembryos of B. napus microspore cultures; test: DAPI staining of proembryos, fluorescence microscopy of squash preparations; settings: 4 days in culture
Procedure: In order to evaluate whether proembryo structures of treated cultures, identified under the inverted microscope for quantification, were actually dividing microspores, similar to the same structures in control cultures, a simply staining technique was performed to visualize nuclei inside proembryos. Samples from control and treated-cultures of 4 days, containing proembryos, were stained with 10 μg/mL 4′,6-diamidine-2-phenyl indole dihydrochloride (DAPI). Squash preparations were analysed under fluorescence microscopy using UV excitation for observing nuclei.

[3] = tested on: H. vulgare microspore cultures; test: Microspore embryogenesis induction in isolated microspore culture (proembryos at 4 days, embryos at 40 days), liquid medium; settings: for increase in proembryo formation: 4 days; for increment of total number of embryos produced per plate: 40 days, vs control, selected concentrations (2.5 μM TDZD8, 5 μM JZ1.24)
Procedure: H. vulgare L. cv. Igri plants were used as donor plants. Seeds were vernalized in soil for one month at 4° C., and then transferred for one month in a plant growth chamber at 18° C. for germination and growth. Finally, plants were transferred to a greenhouse under 18° C. temperature.
Spikes containing microspores at the stage of vacuolated microspore, the most responsive stage for embryogenesis induction, were collected and surface sterilized by immersion in 5% bleach for 20 min, followed by 4 washes with sterile distilled water. Isolated microspore culture was settled as previously described (Rodŕiguez-Serrano et al., 2012, Journal of Experimental Botany 63(5), 2007-2024). The sterilized spikes were pre-treated at 4° C. for 21-24 days as stress treatment to induce microspore embryogenesis. Microspore were isolated blending spikes in 20 ml of pre-cooled 0.4 M mannitol at 4° C., using a Waring Blender pre-cooled in a refrigerator at −20° C., and the extract was filtered through a 100 μm nylon mesh into a beaker pre-cooled at −20° C. The collected microspore suspension was transferred into a 50 ml tube and centrifuged at 800 rpm for 10 min at 4° C. After removing the supernatant, the pellet was resuspended in 4 ml of pre-cooled 0.55 M maltose and transferred in 15 ml falcon tube. 1.5 ml of 0.4 M mannitol solution were cautiously added unmixed. After gradient centrifugation at 800 rpm for 10 min at 4° C., the interphase band consisting of an almost pure population of vacuolated microspores was resuspended in 0.4M mannitol solution giving a final volume of 10 ml. After counting cells in the Neubauer chamber, the pelleted microspores were diluted in an appropriate volume of KBP medium to obtain a cell density of 1.1×10^5 cells per ml, and plated in 30 mm Petri dishes, at a volume of 1 ml per plate. Then, microspore cultures were incubated at 25° C. in the dark, and microspores reprogrammed and produced multicellular structures/proembryos that can be found after 4-6 days in culture, as the first sign of embryogenesis initiation. Proembryos further developed and produced coleoptylar and mature embryos (FIG. 2), which were observed after 30 days.
The compounds were added to the microspore liquid culture media by using stock solutions of 10 mM in DMSO. […]
The compounds were added from culture initiation and their effect on embryogenesis efficiency was assessed. […]
Embryogenesis induction was quantified in control and treated-cultures by the number of proembryos formed (considered the first sign of embryogenesis initiation), as previously described, and by the number of embryos produced after 40 days. […]

| Structure (SMILES) | concentrations that provided an improvement of embryogenesis initiation yield [1] | also measured |
| --- | --- | --- |
| O=C1Nc2ccccc2C1=NN1CCOCC1 [IGS4.75, (E,Z)-3-(morpholinoimino)indolin-2-one] | 5 µM |  |
| c1ccc(-c2nc(=NCCN3CCOCC3)sn2-c2ccccc2)cc1 [VP3.15, 5-(2-Morpholinethylimino)-2,3-diphenyl-2,5-dihydro-1,2,4-thiadiazole] | 2.5 µM |  |
| O=C(Nc1nc2ccc(F)cc2s1)c1ccc(N2CCOCC2)cc1 [JZ1.6, N-(6-fluorobenzothiazole-2-yl)-4-morpholinobenzamide] | 1 µM |  |
| CCCCCCCCCCCCCCCC(=O)NNC(=O)c1c(O)c2ccccc2n(CC)c1=O [VP0.7, 4-hydroxy-1-ethyl-N′-palmitoyl-2-oxo-1,2-dihydroquinoline-3-carbohydrazide] | 5 µM |  |
| Cc1ccc2nc(NC(=O)c3ccc(N4CCOCC4)cc3)sc2c1 [JZ1.3, N-(6-methylbenzothiazole-2-yl)-4-morpholinobenzamide] | 5 µM |  |
| Cn1sc(=O)n(Cc2ccccc2)c1=O [TDZD8, 4-benzyl-2-methyl-1,2,4-thiadozilidine-3,5-dione, reference compound] | 0.5 µM and 1 µM | increase in the percentage of proembryos ([1]; 0.5 μM): 20%; nuclei in proembryos (DAPI staining) [2]: proembryos contain several nuclei; increase in proembryo formation ([3]; 2.5 μM): 27%; increment of total number of embryos produced per plate [3]: 15% |
| O=C(Nc1nc2ccc(Br)cc2s1)c1ccc(N2CCOCC2)cc1 [JZ1.24, N-(6-bromobenzothiazole-2-yl)-4-morpholinobenzamide] | 2.5 µM | increase in the percentage of proembryos ([1]; 2.5 μM): 27.5%; increase in proembryo formation ([3]; 5 μM): 47%; increment of total number of embryos produced per plate [3]: 22% |
| CC(=O)C1=C(c2cn(C)c3ccccc23)C(=O)NC1=O [VP3.36, 3-acetyl-4-(1-methyl-1H-indol-3-yl)-1H-pirrol-2,5-dione] | 2.5 µM |  |
